Assay results as given in US10266549B2, “ULK1 inhibitors and methods using same” (SALK INSTITUTE FOR BIOLOGICAL STUDIES, priority 2014, dated 2019).

How the values were obtained:
WT ULK1 = WT ULK1 (Homo sapiens (Human), UniProt O75385); experiment: in vitro kinase assay, WT ULK1, MBP substrate, radiolabeled ATP; type: biochemical; details: 10-μM MBP, 30-μM γ-32P-ATP; triplicate, ten-dose, 3-fold serial dilution from 1 μM
Procedure: WT ULK1 (left) and WT ULK2 (right) were assayed using 10-μM MBP in the presence of 30-μM radiolabeled γ-^32P-ATP.
To further examine how ULK1 regulates autophagy, we sought to identify small molecule ATP competitive kinase inhibitors of ULK1. Screening a library of chemical compounds for inhibitors of ULK1 kinase activity in vitro, we identified a lead compound that was further elaborated through a medicinal chemistry effort to produce compound 14. […] To further characterize the ability of compound 14 and related derivatives to inhibit ULK1 in cells, we tested the ability of these compounds to inhibit the phosphorylation of Vps34 Ser249 when epitope-tagged Vps34 was co-expressed in HEK293T cells with a wild-type ULK1 cDNA. Screening 40 compounds, we found compound 14 inhibited P-Vps34 on overexpressed Vps34 when used at ˜5 μM (FIG. 7B). We next examined the sensitivity of phosphorylation of Vps34 Serine 249 versus Beclin Serine 15 to two structurally distinct ULK1 inhibitors, when cDNAs bearing each were introduced into HEK293T cells. […] (FIG. 11A).

MEFs = experiment: AnnexinV apoptosis analysis in nutrient-deprived MEFs; type: cell-based, mouse
Procedure: A549 cells (ATCC #CCL185) and MEFs were seeded at a concentration of 2.5×10^5 cells/mL (i.e., 750,000 cells per 6 cm dish), grown overnight (18 hrs) and treated as indicted in the figure legends. Unless otherwise indicated, “starvation” is EBSS and “control” is DMEM with full serum for indicated timepoints. Samples for western blot were washed once in 1× ice cold PBS and lysed in boiling SDS lysis buffer (10 mM Tris […], 100 mM NaCl, 1% SDS). After trituration, lysates were equilibrated for protein levels using the BCA method (Pierce) and resolved on 8 to 15% SDS-PAGE gels, depending on the size of the protein. PVDF membranes were probed with indicated antibodies overnight according to the manufacturers instructions.
For flow cytometry analysis, cells were collected at the appropriate time point, washed once in PBS, trypsinized and pelleted. For Annexin V staining, cells were washed in 1× Annexin V buffer and treated as described by the Annexin V staining protocol (BD Pharmingen, San Diego, Calif.). […] Stained cells were analyzed using a FACScan flow cytometer (Becton Dickinson, San Jose, Calif.). Flow cytometry data was analyzed using FlowJo 8.6 software (Tree Star Inc., Ashland, Oreg.). […]

A549 lung cancer cells = experiment: Cyto-ID autophagy detection in A549 cells; type: cell-based; details: A549, 5 μM for 2 hr then 4 μM AZD8055 for 24 hr
Procedure: FIG. 9E is an immunoflourescence imaging of A549 cells treated in the presence or absence of 5 μM compound 14 for 2 hr followed by 4 μM of the mTOR catalytic inhibitor AZD8055 for 24 hr. Autophagic vacuoles were detected using the Cyto-ID autophagy detection kit and are visualized in green, while cell nuclei were counterstained by DAPI and are visualized in blue.
To test the ability of compound 14 to block autophagy and cell survival, initial studies were performed in A549 lung cancer cells, which are highly sensitive to mTOR inhibition. […] Next, we genetically assessed the requirement for ULK1 versus other kinases inhibited by compound 14 to induce autophagy after pharmacological mTOR inhibition. A robust high-throughput microscopy method for quantifying GFP-LC3 puncta was established using a PC3 prostate-cancer cell line stably expressing a GFP-LC3 construct. Using this assay, we performed a focused RNAi analysis of the top 20 kinases identified in the DiscovRx screen as best binding to compound 14. […] Strikingly, of the 18 kinases tested, only one kinase siRNA, ULK1, nearly fully abolished the LC3 puncta induced by the mTOR inhibitors (FIG. 9D).

U87MG glioblastoma cells = experiment: AnnexinV apoptosis in U87MG cells; type: cell-based; details: selectively in the nutrient-starved state
Procedure: For flow cytometry analysis, cells were collected at the appropriate time point, washed once in PBS, trypsinized and pelleted. For Annexin V staining, cells were washed in 1× Annexin V buffer and treated as described by the Annexin V staining protocol (BD Pharmingen, San Diego, Calif.). Briefly, cells were resuspended in Annexin V buffer to a concentration of one million per mL, 100,000 cells were then stained with 5 μL of phycoerythrin (PE)-conjugated Annexin V antibody (BD Pharmingen, San Diego, Calif.) and 5 μL of 7-amino-actinomycin D (7AAD) and then incubated at room temperature for 15 minutes. 400 μL of Annexin V buffer was then added to each sample with gentle mixing. Stained cells were analyzed using a FACScan flow cytometer (Becton Dickinson, San Jose, Calif.). Flow cytometry data was analyzed using FlowJo 8.6 software (Tree Star Inc., Ashland, Oreg.).
There has been great interest in the role of autophagy in the survival of tumor cells, particular tumor cells faced with metabolic stress from chemotherapies or targeted therapeutics. We next examined whether compound 14 would promote apoptosis in tumor cells similar to the MEFs, selectively under conditions in which autophagy is actively engaged. […]

WT ULK1, sequence (O75385 whole entry): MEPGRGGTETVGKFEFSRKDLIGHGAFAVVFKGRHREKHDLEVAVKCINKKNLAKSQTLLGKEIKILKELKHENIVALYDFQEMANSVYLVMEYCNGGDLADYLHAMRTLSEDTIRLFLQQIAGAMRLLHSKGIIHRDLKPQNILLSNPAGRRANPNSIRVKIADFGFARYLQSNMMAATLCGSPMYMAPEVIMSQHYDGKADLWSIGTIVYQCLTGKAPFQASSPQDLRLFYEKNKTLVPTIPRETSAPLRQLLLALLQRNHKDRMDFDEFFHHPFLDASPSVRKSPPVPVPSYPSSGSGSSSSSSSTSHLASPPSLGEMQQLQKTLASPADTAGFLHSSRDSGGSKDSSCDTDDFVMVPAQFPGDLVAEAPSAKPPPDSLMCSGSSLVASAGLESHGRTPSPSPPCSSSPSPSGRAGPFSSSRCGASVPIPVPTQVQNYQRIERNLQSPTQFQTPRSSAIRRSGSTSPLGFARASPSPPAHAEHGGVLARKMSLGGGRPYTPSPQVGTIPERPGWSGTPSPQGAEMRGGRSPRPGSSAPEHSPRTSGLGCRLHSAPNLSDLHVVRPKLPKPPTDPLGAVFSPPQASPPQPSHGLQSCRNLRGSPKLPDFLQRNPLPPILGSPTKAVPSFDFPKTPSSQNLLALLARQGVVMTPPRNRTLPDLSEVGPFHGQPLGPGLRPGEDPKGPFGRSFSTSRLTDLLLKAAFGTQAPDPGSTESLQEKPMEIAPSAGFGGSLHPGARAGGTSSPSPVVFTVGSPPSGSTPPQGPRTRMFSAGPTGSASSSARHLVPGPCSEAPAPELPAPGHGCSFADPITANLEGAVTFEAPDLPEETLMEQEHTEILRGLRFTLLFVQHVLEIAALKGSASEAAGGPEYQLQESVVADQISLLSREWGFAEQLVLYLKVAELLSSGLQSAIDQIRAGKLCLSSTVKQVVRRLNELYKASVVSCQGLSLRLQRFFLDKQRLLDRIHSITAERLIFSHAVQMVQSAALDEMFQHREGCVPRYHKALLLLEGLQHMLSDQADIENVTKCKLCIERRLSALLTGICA

Structure (SMILES): CNC(=O)c1ccccc1Nc1nc(Nc2cc(OC)c(OC)c(OC)c2)ncc1Br [compound 14, 2-(5-bromo-2-(3,4,5-trimethoxyphenylamino)pyrimidin-4-ylamino)-N-methylbenzamide]
- IC50 (WT ULK1): 0.107 µM
- AnnexinV positive cells (MEFs; MEFs, 24 h after amino-acid deprivation): 50%
- cell death (MEFs; glucose-deprived MEFs): promoted cell death
- AZD8055-induced autophagy (Cyto-ID autophagy dye accumulation) (A549 lung cancer cells): strongly suppressed
- apoptosis (AnnexinV+ cells) (U87MG glioblastoma cells): promoted apoptosis
